Measured values reported in PubChem BioAssay AID2060622 (Molecular Pharmacology Branch, DTP, NCI, 2025).
Where “and” joins values, the source holds several entries; their conditions need not be identical. Identical values can stand only once.

Test system: 242566-281-R-J2-PDC complex spheroid viability
Assay: Anticancer human tumor 242566-281-R-J2-PDC patient-derived pancreatic carcinoma cell line growth inhibition [CLK]
Settings: for viability, T/C: stronger effect = lower value
Summary of the method: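 Multi-cell-type spheroids combined patient-derived tumor cells with HUVEC endothelial cells and human mesenchymal stem cells. Paired agents were dosed in half-log steps down from about clinical Cmax, or from 10 microM where Cmax was unknown.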

[1] = curve of first compound, second compound 0.0316 µM
[2] = curve of first compound, second compound 0.1 µM
[3] = curve of first compound, second compound 0.316 µM
[4] = curve of first compound, second compound 1 µM
[5] = curve of first compound, second compound 3.16 µM
[6] = curve of first compound, second compound 10 µM
[7] = second compound 0.0316 µM, first compound 0.0316 µM
[8] = second compound 0.0316 µM, first compound 0.1 µM
[9] = second compound 0.0316 µM, first compound 0.316 µM
[10] = second compound 0.0316 µM, first compound 1 µM
[11] = second compound 0.0316 µM, first compound 3.16 µM
[12] = second compound 0.0316 µM, first compound 10 µM
[13] = second compound 0.1 µM, first compound 0.0316 µM
[14] = second compound 0.1 µM, first compound 0.1 µM
[15] = second compound 0.1 µM, first compound 0.316 µM
[16] = second compound 0.1 µM, first compound 1 µM
[17] = second compound 0.1 µM, first compound 3.16 µM
[18] = second compound 0.1 µM, first compound 10 µM
[19] = second compound 0.316 µM, first compound 0.0316 µM
[20] = second compound 0.316 µM, first compound 0.1 µM
[21] = second compound 0.316 µM, first compound 0.316 µM
[22] = second compound 0.316 µM, first compound 1 µM
[23] = second compound 0.316 µM, first compound 3.16 µM
[24] = second compound 0.316 µM, first compound 10 µM
[25] = second compound 1 µM, first compound 0.0316 µM
[26] = second compound 1 µM, first compound 0.1 µM
[27] = second compound 1 µM, first compound 0.316 µM
[28] = second compound 1 µM, first compound 1 µM
[29] = second compound 1 µM, first compound 3.16 µM
[30] = second compound 1 µM, first compound 10 µM
[31] = second compound 3.16 µM, first compound 0.0316 µM
[32] = second compound 3.16 µM, first compound 0.1 µM
[33] = second compound 3.16 µM, first compound 0.316 µM
[34] = second compound 3.16 µM, first compound 1 µM
[35] = second compound 3.16 µM, first compound 3.16 µM
[36] = second compound 3.16 µM, first compound 10 µM
[37] = second compound 10 µM, first compound 0.0316 µM
[38] = second compound 10 µM, first compound 0.1 µM
[39] = second compound 10 µM, first compound 0.316 µM
[40] = second compound 10 µM, first compound 1 µM
[41] = second compound 10 µM, first compound 3.16 µM
[42] = second compound 10 µM, first compound 10 µM
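Further: spheroids exposed to compounds for 7 days before readout.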
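Wherever viability, T/C is given: 100% = DMSO vehicle control wells.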

SMILES: C#Cc1c(F)ccc2cc(O)cc(-c3ncc4c(N5CC6CCC(C5)N6)nc(OCC56CCCN5CC(F)C6)nc4c3F)c12 (stereo unspecified) + CN1CCN(c2cc(C(=O)Nc3cc4cc(-c5cnn(C)c5)ccc4cn3)ccn2)CC1
- IC50 [1]: 84.6 nM
- IC50 [2]: 65.3 nM
- IC50 [3]: < 31.6 nM
- IC50 [4]: < 31.6 nM
- IC50 [5]: < 31.6 nM
- IC50 [6]: < 31.6 nM
- viability, T/C [7]: 63.9%
- viability, T/C [8]: 47.5%
- viability, T/C [9]: 34%
- viability, T/C [10]: 29.4%
- viability, T/C [11]: 23.9%
- viability, T/C [12]: 17.1%
- viability, T/C [13]: 61.3%
- viability, T/C [14]: 42.9%
- viability, T/C [15]: 31.1%
- viability, T/C [16]: 19.9%
- viability, T/C [17]: 18.5%
- viability, T/C [18]: 15.5%
- viability, T/C [19]: 18.4%
- viability, T/C [20]: 13.2%
- viability, T/C [21]: 12.2%
- viability, T/C [22]: 10.6%
- viability, T/C [23]: 7.18%
- viability, T/C [24]: 3.44%
- viability, T/C [25]: 1.87%
- viability, T/C [26]: 1.39%
- viability, T/C [27]: 1.09%
- viability, T/C [28]: 1.22%
- viability, T/C [29]: 1.43%
- viability, T/C [30]: 1.26%
- viability, T/C [31]: 2.9%
- viability, T/C [32]: 2.24%
- viability, T/C [33]: 2.74%
- viability, T/C [34]: 2.35%
- viability, T/C [35]: 2.06%
- viability, T/C [36]: 1.51%
- viability, T/C [37]: 1.01%
- viability, T/C [38]: 0.76%
- viability, T/C [39]: 0.69%
- viability, T/C [40]: 0.78%
- viability, T/C [41]: 0.71%
- viability, T/C [42]: 0.34%

SMILES: C#Cc1c(F)ccc2cc(O)cc(-c3ncc4c(N5CC6CCC(C5)N6)nc(OCC56CCCN5CC(F)C6)nc4c3F)c12 (stereo unspecified) + CNC(=O)c1ccc(Nc2nc(OC3CCCC3)c3c(-c4ccc5nc(C)oc5c4)c[nH]c3n2)c(OC)c1
- IC50 [1]: 4270 nM
- IC50 [2]: 1430 nM
- IC50 [3]: 434 nM
- IC50 [4]: < 31.6 nM
- IC50 [5]: < 31.6 nM
- IC50 [6]: < 31.6 nM
- viability, T/C [7]: 106%
- viability, T/C [8]: 89.4%
- viability, T/C [9]: 68.1%
- viability, T/C [10]: 60.8%
- viability, T/C [11]: 52.1%
- viability, T/C [12]: 45.6%
- viability, T/C [13]: 109%
- viability, T/C [14]: 92.9%
- viability, T/C [15]: 67.6%
- viability, T/C [16]: 55.3%
- viability, T/C [17]: 42.2%
- viability, T/C [18]: 32.9%
- viability, T/C [19]: 81.7%
- viability, T/C [20]: 66.7%
- viability, T/C [21]: 52.2%
- viability, T/C [22]: 39.3%
- viability, T/C [23]: 36.5%
- viability, T/C [24]: 22.3%
- viability, T/C [25]: 48.4%
- viability, T/C [26]: 29%
- viability, T/C [27]: 22.9%
- viability, T/C [28]: 16.5%
- viability, T/C [29]: 13.4%
- viability, T/C [30]: 15.5%
- viability, T/C [31]: 20.3%
- viability, T/C [32]: 17.5%
- viability, T/C [33]: 15.9%
- viability, T/C [34]: 11.8%
- viability, T/C [35]: 10.9%
- viability, T/C [36]: 7.39%
- viability, T/C [37]: 17.5%
- viability, T/C [38]: 14.5%
- viability, T/C [39]: 13.2%
- viability, T/C [40]: 10.8%
- viability, T/C [41]: 11.1%
- viability, T/C [42]: 6.78%

SMILES: COc1cccc2c1C(=O)c1c(O)c3c(c(O)c1C2=O)CC(O)(C(=O)CO)CC3OC1CC(N)C(O)C(C)O1 (stereo unspecified) + CN1CCN(c2cc(C(=O)Nc3cc4cc(-c5cnn(C)c5)ccc4cn3)ccn2)CC1
- IC50 [1]: 55 nM
- IC50 [2]: 50 nM
- IC50 [3]: < 31.6 nM
- IC50 [4]: < 31.6 nM
- IC50 [5]: < 31.6 nM
- IC50 [6]: < 31.6 nM
- viability, T/C [7]: 67%
- viability, T/C [8]: 31.7%
- viability, T/C [9]: 8.7%
- viability, T/C [10]: 4.2%
- viability, T/C [11]: 1.44%
- viability, T/C [12]: 2.53%
- viability, T/C [13]: 66.5%
- viability, T/C [14]: 25.1%
- viability, T/C [15]: 5.6%
- viability, T/C [16]: 2.26%
- viability, T/C [17]: 1.22%
- viability, T/C [18]: 1.37%
- viability, T/C [19]: 26.1%
- viability, T/C [20]: 7.56%
- viability, T/C [21]: 1.25%
- viability, T/C [22]: 1.1%
- viability, T/C [23]: 1.58%
- viability, T/C [24]: 1.58%
- viability, T/C [25]: 4.67%
- viability, T/C [26]: 4.62%
- viability, T/C [27]: 2.83%
- viability, T/C [28]: 3.28%
- viability, T/C [29]: 2.48%
- viability, T/C [30]: 2.27%
- viability, T/C [31]: 6.53%
- viability, T/C [32]: 5.78%
- viability, T/C [33]: 5.19%
- viability, T/C [34]: 3.29%
- viability, T/C [35]: 2.58%
- viability, T/C [36]: 1.42%
- viability, T/C [37]: 1.13%
- viability, T/C [38]: 1.22%
- viability, T/C [39]: 0.74%
- viability, T/C [40]: 0.66%
- viability, T/C [41]: 0.57%
- viability, T/C [42]: 0.17%

SMILES: NC(=O)C(=Cn1cnc(-c2cc(C(F)(F)F)cc(C(F)(F)F)c2)n1)c1cncnc1
- viability, T/C (compound 0.00949 µM): 108% and 96.6%
- viability, T/C (compound 0.03 µM): 103%
- viability, T/C (compound 0.0949 µM): 99.7% and 142%
- viability, T/C (compound 0.3 µM): 99% and 152%
- viability, T/C (compound 0.949 µM): 55.8% and 101%
- viability, T/C (compound 3 µM): 25.7% and 58.9%
- IC50 (curve of compound): 1190 nM and > 3000 nM

SMILES: CC1(C)CCC(CN2CCN(c3ccc(C(=O)NS(=O)(=O)c4ccc(NCC5CCOCC5)c([N+](=O)[O-])c4)c(Oc4cnc5[nH]ccc5c4)c3)CC2)=C(c2ccc(Cl)cc2)C1
- viability, T/C (compound 0.0316 µM): 110% and 84.2%
- viability, T/C (compound 0.1 µM): 89.7% and 93.9%
- viability, T/C (compound 0.316 µM): 109% and 102%
- viability, T/C (compound 1 µM): 117% and 132%
- viability, T/C (compound 3.16 µM): 109% and 122%
- viability, T/C (compound 10 µM): 14.1% and 73.1%
- IC50 (curve of compound): 6410 nM and > 10000 nM

SMILES: CN1CCN(c2cc(C(=O)Nc3cc4cc(-c5cnn(C)c5)ccc4cn3)ccn2)CC1
- viability, T/C (compound 0.0316 µM): 101% [middle of 12 runs]
- viability, T/C (compound 0.1 µM): 90.2% [middle of 12 runs]
- viability, T/C (compound 1 µM): 4.87% [middle of 12 runs]
- viability, T/C (compound 3.16 µM): 7.54% [middle of 12 runs]
- viability, T/C (compound 10 µM): 1.65% [middle of 11 runs]
- IC50 (compound alone, run of 07/31/2023): 230 nM [middle of 12 runs]
